Reference: the supplement of paper PMC10307832

Assays:
Experiment in all cases: relative viability (nuclei count vs DMSO), 5 days (fraction); higher = more cells survive
[1] = compound: CC(C)C[C@H](NC(=O)[C@H](Cc1ccccc1)NC(=O)c1cnccn1)B(O)O [Bortezomib]
Method in brief: (§1)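 Lung cancer cell lines in 1536-well plates were exposed by pinning to five library-drug doses (not always all listed) √10 apart, following an overnight hold at 37 °C. MetaXpress counted Hoechst-stained nuclei from 4× images taken after 5 days without medium change. Viability is the median ratio of treated-well to vehicle-well nuclei across plates. Plates required control CV below 25% and at least one doubling.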

[2] = compound: CC1=CC(=NN1)NC2=CC(=NC(=N2)/C=C/C3=CC=CC=C3)N4CCN(CC4)C
Method in brief: as §1

[3] = compound: COC1=CC(c2cc3ccccc3[nH]2)=N/C1=C\c1[nH]c(C)cc1C [Obatoclax]
Method in brief: as §1

Row | Cell Line | relative viability ([1]; 0.0002 µM) | relative viability ([1]; 0.000632 µM) | relative viability ([1]; 0.002 µM) | relative viability ([1]; 0.002 µM, anchor plate) | relative viability ([1]; 0.006325 µM) | relative viability ([1]; 0.02 µM) | relative viability ([2]; 0.08 µM) | relative viability ([2]; 0.253 µM) | relative viability ([2]; 0.8 µM) | relative viability ([2]; 2.53 µM) | relative viability ([2]; 8 µM) | relative viability ([3]; 0.01 µM) | relative viability ([3]; 0.03162 µM) | relative viability ([3]; 0.1 µM) | relative viability ([3]; 0.3162 µM) | relative viability ([3]; 1 µM)
1 | LCLC-97TM1 | 0.943 | 0.729 | 1.08 | 0.744 | 0.439 | 0.118 | 0.911 | 0.963 | 0.912 | 0.504 | 0.121 | 0.988 | 0.801 | 1.31 | 0.856 | 0.908
2 | NCI-H1563 | 0.971 | 1 | 0.826 | 0.858 | 0.564 | 0.442 | 1.03 | 1.01 | 0.999 | 0.752 | 0.509 | 0.989 | 0.979 | 1.08 | 0.956 | 0.895
3 | NCI-H838 | 0.952 | 0.955 | 0.974 | 0.858 | 0.253 | 0.161 | 0.963 | 1.03 | 0.846 | 0.214 | 0.133 | 0.995 | 0.945 | 0.78 | 0.904 | 0.65
4 | NCI-H520 | 1.08 | 0.956 | 0.654 | 0.622 | 0.172 | 0.169 | 0.975 | 1.04 | 0.871 | 0.261 | 0.126 | 0.993 | 0.791 | 1.07 | 0.976 | 0.774
5 | NCI-H2347 | 1 | 0.936 | 1.03 | 1.08 | 0.615 | 0.339 | 0.966 | 1.11 | 1.1 | 0.891 | 0.525 | 0.999 | 0.946 | 0.843 | 0.946 | 0.926
6 | NCI-H441 | 0.936 | 0.964 | 0.575 | 0.555 | 0.132 | 0.139 | 1.01 | 1.01 | 0.931 | 0.249 | 0.143 | 1.06 | 0.91 | 0.99 | 0.705 | 0.463
7 | NCI-H358 | 0.904 | 0.675 | 0.874 |  | 0.131 | 0.162 | 0.847 | 0.92 | 0.787 | 0.203 | 0.11 | 0.923 | 0.911 | 0.833 | 0.623 | 0.319
8 | NCI-H1648 | 0.771 | 0.769 | 0.529 |  | 0.622 | 0.312 | 0.972 | 1.04 | 0.983 | 0.655 | 0.484 | 1.02 | 0.85 | 1.64 | 0.718 | 0.815
9 | NCI-H2405 | 0.96 | 0.907 | 0.988 | 0.939 | 0.293 | 0.18 | 0.979 | 0.889 | 1.06 | 0.458 | 0.201 | 1.07 | 0.997 |  | 1.01 | 1.07
10 | HCC-15 | 0.909 | 1.07 | 0.996 | 1.01 | 0.549 | 0.0945 | 1.01 | 1 | 1.01 | 0.524 | 0.1 | 0.975 | 0.948 | 0.842 | 1.05 | 0.816
